In PubChem BioAssay AID1259407 (Chemical Carcinogenesis Research Information System (CCRIS), 2018):
Activity calls are given as the source filed them. No rule for the calls is given here.

System: CCRIS mutagenicity, Ames/micronucleus/aberration tests
Assay: CCRIS mutagenicity studies
[1] = Test System: AMES SALMONELLA TYPHIMURIUM, Strain/Indicator: TA98, Metabolic Activation: NONE, Method: PREINCUBATION
[2] = Test System: AMES SALMONELLA TYPHIMURIUM, Strain/Indicator: TA100, Metabolic Activation: NONE, Method: PREINCUBATION
[3] = Test System: AMES SALMONELLA TYPHIMURIUM, Strain/Indicator: TA1535, Metabolic Activation: NONE, Method: PREINCUBATION
[4] = Test System: AMES SALMONELLA TYPHIMURIUM, Strain/Indicator: TA1537, Metabolic Activation: NONE, Method: PREINCUBATION
[5] = Test System: AMES SALMONELLA TYPHIMURIUM, Strain/Indicator: TA98, Metabolic Activation: NONE, Method: STANDARD PLATE
[6] = Test System: AMES SALMONELLA TYPHIMURIUM, Strain/Indicator: TA98, Metabolic Activation: RAT, LIVER, S-9, AROCLOR 1254, Method: STANDARD PLATE
[7] = Test System: AMES SALMONELLA TYPHIMURIUM, Strain/Indicator: TA100, Metabolic Activation: NONE, Method: STANDARD PLATE
[8] = Test System: AMES SALMONELLA TYPHIMURIUM, Strain/Indicator: TA100, Metabolic Activation: RAT, LIVER, S-9, AROCLOR 1254, Method: STANDARD PLATE

## CC(COC(=O)c1ccccc1)(COC(=O)c1ccccc1)COC(=O)c1ccccc1
Test System: AMES SALMONELLA TYPHIMURIUM, Strain/Indicator: TA97, Metabolic Activation: HAMSTER, LIVER, S-9, AROCLOR 1254 (10 OR 30%), Method: PREINCUBATION
  mutagenic call: inactive; negative
Test System: AMES SALMONELLA TYPHIMURIUM, Strain/Indicator: TA97, Metabolic Activation: NONE, Method: PREINCUBATION
  mutagenic call: inactive; negative
Test System: AMES SALMONELLA TYPHIMURIUM, Strain/Indicator: TA97, Metabolic Activation: RAT, LIVER, S-9, AROCLOR 1254 (10 OR 30%), Method: PREINCUBATION
  mutagenic call: inactive; negative
Test System: AMES SALMONELLA TYPHIMURIUM, Strain/Indicator: TA98, Metabolic Activation: HAMSTER, LIVER, S-9, AROCLOR 1254 (10 OR 30%), Method: PREINCUBATION
  mutagenic call: inactive; negative
[1]
  mutagenic call: inactive; negative
Test System: AMES SALMONELLA TYPHIMURIUM, Strain/Indicator: TA98, Metabolic Activation: RAT, LIVER, S-9, AROCLOR 1254 (10 OR 30%), Method: PREINCUBATION
  mutagenic call: inactive; negative
Test System: AMES SALMONELLA TYPHIMURIUM, Strain/Indicator: TA100, Metabolic Activation: HAMSTER, LIVER, S-9, AROCLOR 1254 (10 OR 30%), Method: PREINCUBATION
  mutagenic call: inactive; negative
[2]
  mutagenic call: inactive; negative
Test System: AMES SALMONELLA TYPHIMURIUM, Strain/Indicator: TA100, Metabolic Activation: RAT, LIVER, S-9, AROCLOR 1254 (10 OR 30%), Method: PREINCUBATION
  mutagenic call: inactive; negative
Test System: AMES SALMONELLA TYPHIMURIUM, Strain/Indicator: TA1535, Metabolic Activation: HAMSTER, LIVER, S-9, AROCLOR 1254 (10 OR 30%), Method: PREINCUBATION
  mutagenic call: inactive; negative
[3]
  mutagenic call: inactive; negative
Test System: AMES SALMONELLA TYPHIMURIUM, Strain/Indicator: TA1535, Metabolic Activation: RAT, LIVER, S-9, AROCLOR 1254 (10 OR 30%), Method: PREINCUBATION
  mutagenic call: inactive; negative
Test System: AMES SALMONELLA TYPHIMURIUM, Strain/Indicator: TA1537, Metabolic Activation: HAMSTER, LIVER, S-9, AROCLOR 1254 (30%), Method: PREINCUBATION
  mutagenic call: inactive; negative
[4]
  mutagenic call: inactive; negative
Test System: AMES SALMONELLA TYPHIMURIUM, Strain/Indicator: TA1537, Metabolic Activation: RAT, LIVER, S-9, AROCLOR 1254 (30%), Method: PREINCUBATION
  mutagenic call: inactive; negative

## CCCC[C@@H](C)[C@@H](OC(=O)C[C@@H](CC(=O)O)C(=O)O)[C@H](C[C@@H](C)CCCCCC[C@@H](O)C[C@H](O)[C@H](C)N)OC(=O)C[C@@H](CC(=O)O)C(=O)O
Test System: AMES SALMONELLA TYPHIMURIUM, Strain/Indicator: TA97A, Metabolic Activation: NONE, Method: STANDARD PLATE
  mutagenic call: inactive; negative
Test System: AMES SALMONELLA TYPHIMURIUM, Strain/Indicator: TA97A, Metabolic Activation: RAT, LIVER, S-9, AROCLOR 1254, Method: STANDARD PLATE
  mutagenic call: inactive; negative
[5]
  mutagenic call: inactive; negative
[6]
  mutagenic call: inactive; negative
[7]
  mutagenic call: inactive; negative
[8]
  mutagenic call: inactive; negative
Test System: AMES SALMONELLA TYPHIMURIUM, Strain/Indicator: TA102, Metabolic Activation: NONE, Method: STANDARD PLATE
  mutagenic call: inactive; negative
Test System: AMES SALMONELLA TYPHIMURIUM, Strain/Indicator: TA102, Metabolic Activation: RAT, LIVER, S-9, AROCLOR 1254, Method: STANDARD PLATE
  mutagenic call: inactive; negative

## [O]=[Cd]
End Point: In vivo micronucleus, Test System: Peripheral blood lymphocytes, Species: Dog, Strain/Sex: Mongrel/Male, Female, Route: Oral
  mutagenic call: active; positive in group 2
Test System: AMES SALMONELLA TYPHIMURIUM, Strain/Indicator: TA98, Metabolic Activation: HAMSTER, LIVER, S-9, AROCLOR 1254 (10%), Method: PREINCUBATION
  mutagenic call: inactive; negative
[1]
  mutagenic call: inactive; negative
Test System: AMES SALMONELLA TYPHIMURIUM, Strain/Indicator: TA98, Metabolic Activation: RAT, LIVER, S-9, AROCLOR 1254 (10%), Method: PREINCUBATION
  mutagenic call: inactive; negative
Test System: AMES SALMONELLA TYPHIMURIUM, Strain/Indicator: TA100, Metabolic Activation: HAMSTER, LIVER, S-9, AROCLOR 1254 (10%), Method: PREINCUBATION
  mutagenic call: inactive; negative
[2]
  mutagenic call: inactive; negative
Test System: AMES SALMONELLA TYPHIMURIUM, Strain/Indicator: TA100, Metabolic Activation: RAT, LIVER, S-9, AROCLOR 1254 (10%), Method: PREINCUBATION
  mutagenic call: inactive; negative
Test System: AMES SALMONELLA TYPHIMURIUM, Strain/Indicator: TA1535, Metabolic Activation: HAMSTER, LIVER, S-9, AROCLOR 1254 (10%), Method: PREINCUBATION
  mutagenic call: inactive; negative
[3]
  mutagenic call: inactive; negative
Test System: AMES SALMONELLA TYPHIMURIUM, Strain/Indicator: TA1535, Metabolic Activation: RAT, LIVER, S-9, AROCLOR 1254 (10%), Method: PREINCUBATION
  mutagenic call: inactive; negative
Test System: AMES SALMONELLA TYPHIMURIUM, Strain/Indicator: TA1537, Metabolic Activation: HAMSTER, LIVER, S-9, AROCLOR 1254 (10%), Method: PREINCUBATION
  mutagenic call: inactive; negative
[4]
  mutagenic call: inactive; negative
Test System: AMES SALMONELLA TYPHIMURIUM, Strain/Indicator: TA1537, Metabolic Activation: RAT, LIVER, S-9, AROCLOR 1254 (10%), Method: PREINCUBATION
  mutagenic call: inactive; negative

## CCOc1ccc(N)cc1N
Test System: AMES SALMONELLA TYPHIMURIUM, Strain/Indicator: TA97, Metabolic Activation: RAT, LIVER, S-9, AROCLOR 1254 (4 OR 10%), Method: STANDARD PLATE
  mutagenic call: active; positive
Test System: AMES SALMONELLA TYPHIMURIUM, Strain/Indicator: TA1537, Metabolic Activation: RAT, LIVER, S-9, AROCLOR 1254 (4 OR 10%), Method: STANDARD PLATE
  mutagenic call: active; positive
Test System: AMES SALMONELLA TYPHIMURIUM, Strain/Indicator: TA1538, Metabolic Activation: RAT, LIVER, S-9, AROCLOR 1254 (4 OR 10%), Method: STANDARD PLATE
  mutagenic call: active; positive

## CC(=O)Nc1snc2ccccc12
[5]
  mutagenic call: inactive; negative
Test System: AMES SALMONELLA TYPHIMURIUM, Strain/Indicator: TA98, Metabolic Activation: S-9, Method: STANDARD PLATE
  mutagenic call: inactive; negative
[7]
  mutagenic call: inactive; negative
Test System: AMES SALMONELLA TYPHIMURIUM, Strain/Indicator: TA100, Metabolic Activation: S-9, Method: STANDARD PLATE
  mutagenic call: active; positive
Test System: AMES SALMONELLA TYPHIMURIUM, Strain/Indicator: TA1535, Metabolic Activation: NONE, Method: STANDARD PLATE
  mutagenic call: inactive; negative
Test System: AMES SALMONELLA TYPHIMURIUM, Strain/Indicator: TA1535, Metabolic Activation: S-9, Method: STANDARD PLATE
  mutagenic call: inactive; negative
Test System: AMES SALMONELLA TYPHIMURIUM, Strain/Indicator: TA1537, Metabolic Activation: NONE, Method: STANDARD PLATE
  mutagenic call: active; positive
Test System: AMES SALMONELLA TYPHIMURIUM, Strain/Indicator: TA1537, Metabolic Activation: S-9, Method: STANDARD PLATE
  mutagenic call: active; positive

## Cc1nc(-c2ccc([N+](=O)[O-])o2)cs1
Test System: AMES SALMONELLA TYPHIMURIUM, Strain/Indicator: TA100, Metabolic Activation: RAT, LIVER, S-9, KC500 OR PHENOBARBITAL, Method: LIQUID SUSPENSION
  mutagenic call: active; positive

## C/C(C=O)=C(/Cl)C(=O)O
[1]
  mutagenic call: active; positive
[2]
  mutagenic call: active; positive
Test System: AMES SALMONELLA TYPHIMURIUM, Strain/Indicator: TA104, Metabolic Activation: NONE, Method: PREINCUBATION
  mutagenic call: active; positive

## CC[N+]([O-])=NC
Test System: AMES SALMONELLA TYPHIMURIUM, Strain/Indicator: TA1535, Metabolic Activation: HAMSTER, LIVER, S-9, AROCLOR 1254, Method: PREINCUBATION
  mutagenic call: inactive; negative
[3]
  mutagenic call: inactive; negative
Test System: AMES SALMONELLA TYPHIMURIUM, Strain/Indicator: TA1535, Metabolic Activation: RAT, LIVER, S-9, AROCLOR 1254, Method: PREINCUBATION
  mutagenic call: inactive; negative

## Nc1ccccc1SCCSc1ccccc1N
[6]
  mutagenic call: inactive; negative
[8]
  mutagenic call: active; positive
